Source: ChEMBL document CHEMBL1138822, “Bis-quinolinium cyclophanes: toward a pharmacophore model for the blockade of apamin-sensitive SKCa channels in sympathetic neurons” (Bioorg Med Chem Lett, 2004)

The compounds below were run against Small conductance calcium-activated potassium channel (Rattus norvegicus, UniProt P70604+P70606+P70605) (assay: Inhibition of after hyperpolarization (AHP) of cultured rat sympathetic neurons as SKCa channel blocking activity). Conditions: sympathetic neuron.
Type: functional, cell-based

Question: With `c1ccc2c(c1)c1cc[n+]2CCCCCCCCCC[n+]2ccc(c3ccccc32)NCCCCCCCCCCN1` as the compound, how does the IC50 read?
Answer: 260 nM

Question: `c1ccc2c(c1)c1cc[n+]2CCCCCC[n+]2ccc(c3ccccc32)NCc2ccc(cc2)CN1` was tested. Which IC50 did it give?
Answer: 65 nM

Question: For `c1ccc2c(c1)c1cc[n+]2CCC[n+]2ccc(c3ccccc32)NCc2ccc(cc2)CN1`, which IC50 is on record?
Answer: 150 nM

Question: For `c1cc2cc(c1)C[n+]1ccc(c3ccccc31)NCCCCCCNc1cc[n+](c3ccccc13)C2`, which IC50 is on record?
Answer: 35 nM

Question: With `[I-].[I-].c1ccc2c(c1)c1cc[n+]2CCCCCCCC[n+]2ccc(c3ccccc32)NCCCCCCCCN1` as the compound, how does the IC50 read?
Answer: 190 nM

Question: How did the IC50 turn out when `c1ccc2c(c1)c1cc[n+]2CCC[n+]2ccc(c3ccccc32)NCCCN1` (stereo in doubt; 2m) was run?
Answer: 380 nM

Question: For `c1ccc2c(c1)c1cc[n+]2CCCCC[n+]2ccc(c3ccccc32)NCc2ccc(cc2)CN1`, which IC50 is on record?
Answer: 60 nM

Question: How did the IC50 turn out when `c1ccc2c(c1)c1cc[n+]2CCCC[n+]2ccc(c3ccccc32)NCCCCCN1` was run?
Answer: 15 nM

Question: How did the IC50 turn out when `c1ccc2c(c1)c1cc[n+]2CCCCC[n+]2ccc(c3ccccc32)NCCCCCCN1` was run?
Answer: 12 nM

Question: How did the IC50 turn out when `c1ccc2c(c1)c1cc[n+]2CCCCCC[n+]2ccc(c3ccccc32)NCCCCCN1` was run?
Answer: 16 nM

Question: With `c1cc2cc(c1)C[n+]1ccc(c3ccccc31)NCCCNc1cc[n+](c3ccccc13)C2` as the compound, how does the IC50 read?
Answer: 25 nM

Question: Which IC50 does the source give for `c1ccc2c(c1)c1cc[n+]2CCCCCC[n+]2ccc(c3ccccc32)NCCCCCCN1` here?
Answer: 60 nM

Question: How did the IC50 turn out when `c1ccc2c(c1)c1cc[n+]2CCCCC[n+]2ccc(c3ccccc32)NCCCN1` was run?
Answer: 30 nM

Question: Which IC50 does the source give for `c1ccc2c(c1)c1cc[n+]2CCCC[n+]2ccc(c3ccccc32)NCCCCN1` here?
Answer: 40 nM

Question: `c1cc2cc(c1)C[n+]1ccc(c3ccccc31)NCCCCCNc1cc[n+](c3ccccc13)C2` was tested. Which IC50 did it give?
Answer: 31 nM

Question: For `[I-].[I-].c1ccc2c(c1)c1cc[n+]2CCCCC[n+]2ccc(c3ccccc32)NCCCCCN1`, which IC50 is on record?
Answer: 2 nM

Question: Which IC50 does the source give for `c1ccc2c(c1)c1cc[n+]2CCCCC[n+]2ccc(c3ccccc32)NCCCCN1` here?
Answer: 9 nM

Question: With `Cc1cc(N)c2ccccc2[n+]1CCCCCCCCCC[n+]1c(C)cc(N)c2ccccc21.[Cl-].[Cl-]` [DEQUALINIUM CHLORIDE] as the compound, how does the IC50 read?
Answer: 900 nM

Question: With `c1ccc2c(c1)c1cc[n+]2CCC[n+]2ccc(c3ccccc32)NCCCN1` (stereo in doubt; 2l) as the compound, how does the IC50 read?
Answer: 630 nM
